# In patent publication US20190055517A1, “Cell Line of M2c Macrophage and Its Applications” (National Pingtung University of Science and Technology, priority 2017, published 2019):
# Assays:
# [1] = system: murine M2 macrophage; assay: Phagocytosis of FITC-Latex beads with PE-anti-MERTK staining (flow cytometry, fluorescence microscopy); assay type: cell-based; conditions: fluorescence microscope, PE-MERTK, FIG. 18
# Procedure: In this example, experiment was performed to evaluate the effect of baicalin induced differentiated […] macrophages in promoting phagocytosis. Treatment conditions of drugs in each group is listed in chart 2, and control group is cultured in RPMI1640 (10% FCS) without any drugs. After treatment, collect 5×10^5 treated cells respectively and add 50 μl FITC-Latex beads (Phagocytosis assay kit (IgG FITC), Cayman Chemical, USA.) to perform phagocytosis experiment for 24 hours, and then use PE-anti-MERTK antibody to mark the cells and observe the fluorescence expression with flow cytometry.
# [2] = system: murine M2 macrophage; assay: Macrophage phenotype by flow cytometry (CD86, CD206) after drug-induced differentiation; assay type: cell-based; conditions: conditions of chart 2, p<0.05, FIG. 3
# Procedure: (§1) Use PBS containing 0.5% BSA to flush out bone marrow cells from murine (C57BL/6J, 8-20 weeks, Taiwan National Laboratory Animal Center) femur, then use Ficoll-Hypaque (GE healthcare, SWEDEN) to isolate monocytes.
# (§2) Then, incubate 2×10^6 monocytes in 50 ng/ml M-CSF contained RPMI 1640 (10% FCS) medium under 37° c., 5% CO2 for seven days to induce M2 macrophage polarization. On the eighth day, collect 2×10^5 M2 macrophage and incubate them in RPMI 1640 (10% FCS) medium with Baicalin (50 μM, Tokyo Chemical Industry, JAPAN) for 24 hours. Baicalin will induce M2 macrophage to differentiate into M2C macrophage.
# Embodiment 1 is prepared by the steps described above, isolate monocytes from murine bone marrow and use M-CSF to induce differentiation of M2 macrophage, and then use baicalin to induce M2C macrophage polarization. In comparison 1, incubate murine M2 macrophage in RPMI 1640 (10% FCS) containing LPS (lipopolysaccharide, 1 μg/ml, Sigma-Aldrich) for 2 hours. In comparison 2, incubate murine M2 macrophage in medium containing IL-4 ([…] Guidance System, Cambridge, UK) for 24 hours. The control group of M2 macrophage is incubated in RPMI 1640 (10% FCS) without any drugs. The conditions are shown below in chart 2.
# After induced differentiation is complete, use flow cytometry to analyse the macrophage phenotype, in the meantime, also use real time PCR (qPCR) to observe mRNA expression level of each gene.
# (§3) FIG. 2˜4 show results of macrophage phenotypes analysed by flow cytometry.
# [3] = system: Raw264.7 macrophages; assay: H2O2 induction of apoptotic cells (annexin-V / 7-AAD flow cytometry); assay type: cell-based, murine; conditions: 1.5 mM H2O2 versus 0.5 and 1 mM, 12 hours, FIG. 19
# Procedure: Inducing apoptotic cells: minor changes were made from steps of obtaining apoptotic cells based on previous studies (Piao et al., 2011 and Fong et al 2007), detailed steps comprising: culture 1.5×10^6 RAW264.7 macrophages with DMEM medium containing 10% FBS in incubator (37° C., 5% CO2). After culturing overnight, treat with 0.5, 1, 1.5 mM H2O2 respectively in DMEM for 12 hours. Next, remove the DMEM medium containing H2O2 and wash the cells with PBS buffer, then use micropipette to transfer cells to 15 ml centrifuge tube and centrifuge cells at 4° C. for 5 mins at rotating speed of 500×g. Remove the supernatant and resuspend the cells with 95 μl […]. Following that, dye the cells with fluorescence marker annexin-V and 7-AAD (BD Bioscience) for 20 mins on ice, avoiding light. After marking the cells, use flow cytometry (FACS BD ARIA II) to detect fluorescence performance. Analysed by software CellQuest (BD Bioscience). If the cells were positive for annexin-V and negative for 7-AAD, the cells will be identified as early apoptotic cells; if the cells were positive for annexin-V and positive for 7-AAD, the cells would be identified as late apoptotic cells.
# [4] = system: monocytes from murine bone marrow; assay: M-CSF induced M2 polarization of bone marrow monocytes (flow cytometry CD11b, CD206, CD80); assay type: cell-based; conditions: 50 ng/ml M-CSF, treated for 7 days, p<0.05, FIG. 2
# Procedure: as §1, §2, §3
molecule,measurement,setting,value
"lipopolysaccharide [LPS, reference compound]",MERTK fluorescence distribution of cells after phagocytosing FITC-Latex beads,[1],comparatively weaker
same,percentage of M1 macrophage (CD86+CD206-),[2],higher
"OO [Embodiment H2O2, H2O2]",percentage of apoptotic cells,[3],higher percentage of apoptotic cells
"macrophage colony-stimulating factor (protein, UniProt P09603 33-554, looked up, 50 ng/ml, induces M2 macrophage polarization of monocytes) Macrophage colony-stimulating …: EEVSEYCSHMIGSGHLQSLQRLIDSQMETSCQITFEFVDQEQLKDPVCYLKKAFLLVQDIMEDTMRFRDNTPNAIAIVQLQELSLRLKSCFTKDYEEHDKACVRTFYETPLQLLEKVKNVFNETKNLLDKDWNIFSKNCNNSFAECSSQDVVTKPDCNCLYPKAIPSSDPASVSPHQPLAPSMAPVAGLTWEDSEGTEGSSLLPGEQPLHTVDPGSAKQRPPRSTCQSFEPPETPVVKDSTIGGSPQPRPSVGAFNPGMEDILDSAMGTNWVPEEASGEASEIPVPQGTELSPSRPGGGSMQTEPARPSNFLSASSPLPASAKGQQPADVTGTALPRVGPVRPTGQDWNHTPQKTDHPSALLRDPPEPGSPRISSLRPQGLSNPSTLSAQPQLSRSHSSGSVLPLGELEGRRSTRDRRSPAEPEGGPASEGAARPLPRFNSVPLTDTGHERQSEGSFSPQLQESVFHLLVPSVILVLLAVGGLLFYRWRRRSHQEPQRADSPLEQPEGSPLTQDDRQVELPV",percentage of cells expressing CD11b and CD206 at the same time (CD11b+CD206+),[4],highest percentage
"IL-4: cytokine, 10 ng/ml, 24 hours, comparison drug to induce differentiation (protein, UniProt P05112 25-153, looked up) Interleukin-4: HKCDITLQEIIKTLNSLTEQKTLCTELTVTDIFAASKNTTEKETFCRAATVLRQFYSHHEKDTRCLGATAQQFHRHKQLIRFLKRLDRNLWGLAGLNSCPVKEANQSTLENFLERLKTIMREKYSKCSS",percentage of M2 macrophage (CD86-CD206+),[2],higher
